Patent US20150203807A1, “INACTIVATION OF A […] USING A FATTY ACID” (NOVOZYMES A/S, priority 2012, published 2015)

Test system: Trichoderma reesei microbial host cells
Assay: Inactivation of the microbial host cells in fermentation broth (growth on agar plates)
Assay type: cell-based
Settings: hexanoic acid at 0.09%, 0.28%, 0.46%, 0.65% (w/w) in fermentation broth; pH 4.5; 24 hrs constant stirring at room temperature; samples incubated for 4 days at 30 degrees Celsius
Protocol: The fatty acid is added to the fermentation broth at various concentrations (0.09% (w/w); 0.28% (w/w); 0.46% (w/w); 0.65% (w/w)).
pH is adjusted to 4.5 using an aqueous solution of acetic acid (CAS 64-19-7) and/or aqueous sodium hydroxide (CAS 1310-73-2).
The fermentation broth with the various concentrations of the fatty acid is left at pH 4.5 for 24 hrs with constant stirring at room temperature.
The fermentation broth is tested after 24 hrs and inactivation of the microbial host cells is successful if there is no growth on agar plates—samples are incubated for 4 days at 30 degrees Celsius.
Hexanoic acid (100% sol., CAS 142-62-1) was added to the fermentation broth at various concentrations (0.09% (w/w); 0.28% (w/w); 0.46% (w/w); 0.65% (w/w)).
pH was adjusted to 4.5 using an aqueous solution of acetic acid (CAS 64-19-7) and/or aqueous sodium hydroxide (CAS 1310-73-2).
The fermentation broth with the various concentrations of hexanoic acid was left at pH 4.5 for 24 hrs with constant stirring at room temperature.
After 24 hrs the Trichoderma reesei microbial host cells were inactivated (no growth on agar plates—samples were incubated for 4 days at 30 degrees Celsius).

## CCCCCC(=O)O [Hexanoic acid]
  inactivation of Trichoderma reesei microbial host cells (no growth on agar plates): inactivated
